Tests used:
[1] = tested on: Spodoptera littoralis; test: Antifeedant activity against Spodoptera littoralis assessed as inhibition of diet consumption at 20 ug/cm2 by leaf disk choice assay relative to control; format: functional; conditions: foliar
[2] = tested on: Spodoptera littoralis; test: Antifeedant activity against Spodoptera littoralis assessed as inhibition of diet consumption by leaf disk choice assay relative to control; format: functional

Structure (SMILES) | inhibition at 20 µg/cm2 [1] [%] | inhibition (INH) [2] [%]
CC1=C(CO)C(=O)O[C@@H]([C@@H](C)[C@H]2CC[C@H]3[C@@H]4C[C@H]5O[C@]56CC=CC(=O)[C@]6(C)[C@H]4CC[C@]23C)C1 [JABOROSALACTONE A] | 74 | 
CC1=C(CO)C(=O)O[C@@H]([C@@H](C)[C@H]2CC[C@H]3[C@@H]4C[C@@H](O)C5=CC=CC(=O)[C@]5(C)[C@H]4CC[C@]23C)C1 [JABOROSALACTONE B] |  | 19
CC1=C(CO)C(=O)O[C@@H]([C@@H](C)[C@H]2CC[C@H]3[C@@H]4C[C@@H](O)[C@@]5(O)CC=CC(=O)[C@]5(C)[C@H]4CC[C@]23C)C1 [JABOROSALACTONE D] |  | -19

From ChEMBL document CHEMBL3046254, “Antifeedant Activity Evaluation of Withanolides from Jaborosa integrifolia” (2000)
